Assay [1] can be described thus: Binding affinity to human recombinant von Willebrand factor A1 domain using surface plasmon resonance imaging sensor.
In a further assay the target is Fibronectin (Homo sapiens, UniProt P02751). Briefly: Binding affinity to fibronectin using surface plasmon resonance imaging sensor method. Background: In SPR one partner is held on a chip, and binding of the other changes the refractive index at the surface.
Chain of Fibronectin (P02751 whole entry): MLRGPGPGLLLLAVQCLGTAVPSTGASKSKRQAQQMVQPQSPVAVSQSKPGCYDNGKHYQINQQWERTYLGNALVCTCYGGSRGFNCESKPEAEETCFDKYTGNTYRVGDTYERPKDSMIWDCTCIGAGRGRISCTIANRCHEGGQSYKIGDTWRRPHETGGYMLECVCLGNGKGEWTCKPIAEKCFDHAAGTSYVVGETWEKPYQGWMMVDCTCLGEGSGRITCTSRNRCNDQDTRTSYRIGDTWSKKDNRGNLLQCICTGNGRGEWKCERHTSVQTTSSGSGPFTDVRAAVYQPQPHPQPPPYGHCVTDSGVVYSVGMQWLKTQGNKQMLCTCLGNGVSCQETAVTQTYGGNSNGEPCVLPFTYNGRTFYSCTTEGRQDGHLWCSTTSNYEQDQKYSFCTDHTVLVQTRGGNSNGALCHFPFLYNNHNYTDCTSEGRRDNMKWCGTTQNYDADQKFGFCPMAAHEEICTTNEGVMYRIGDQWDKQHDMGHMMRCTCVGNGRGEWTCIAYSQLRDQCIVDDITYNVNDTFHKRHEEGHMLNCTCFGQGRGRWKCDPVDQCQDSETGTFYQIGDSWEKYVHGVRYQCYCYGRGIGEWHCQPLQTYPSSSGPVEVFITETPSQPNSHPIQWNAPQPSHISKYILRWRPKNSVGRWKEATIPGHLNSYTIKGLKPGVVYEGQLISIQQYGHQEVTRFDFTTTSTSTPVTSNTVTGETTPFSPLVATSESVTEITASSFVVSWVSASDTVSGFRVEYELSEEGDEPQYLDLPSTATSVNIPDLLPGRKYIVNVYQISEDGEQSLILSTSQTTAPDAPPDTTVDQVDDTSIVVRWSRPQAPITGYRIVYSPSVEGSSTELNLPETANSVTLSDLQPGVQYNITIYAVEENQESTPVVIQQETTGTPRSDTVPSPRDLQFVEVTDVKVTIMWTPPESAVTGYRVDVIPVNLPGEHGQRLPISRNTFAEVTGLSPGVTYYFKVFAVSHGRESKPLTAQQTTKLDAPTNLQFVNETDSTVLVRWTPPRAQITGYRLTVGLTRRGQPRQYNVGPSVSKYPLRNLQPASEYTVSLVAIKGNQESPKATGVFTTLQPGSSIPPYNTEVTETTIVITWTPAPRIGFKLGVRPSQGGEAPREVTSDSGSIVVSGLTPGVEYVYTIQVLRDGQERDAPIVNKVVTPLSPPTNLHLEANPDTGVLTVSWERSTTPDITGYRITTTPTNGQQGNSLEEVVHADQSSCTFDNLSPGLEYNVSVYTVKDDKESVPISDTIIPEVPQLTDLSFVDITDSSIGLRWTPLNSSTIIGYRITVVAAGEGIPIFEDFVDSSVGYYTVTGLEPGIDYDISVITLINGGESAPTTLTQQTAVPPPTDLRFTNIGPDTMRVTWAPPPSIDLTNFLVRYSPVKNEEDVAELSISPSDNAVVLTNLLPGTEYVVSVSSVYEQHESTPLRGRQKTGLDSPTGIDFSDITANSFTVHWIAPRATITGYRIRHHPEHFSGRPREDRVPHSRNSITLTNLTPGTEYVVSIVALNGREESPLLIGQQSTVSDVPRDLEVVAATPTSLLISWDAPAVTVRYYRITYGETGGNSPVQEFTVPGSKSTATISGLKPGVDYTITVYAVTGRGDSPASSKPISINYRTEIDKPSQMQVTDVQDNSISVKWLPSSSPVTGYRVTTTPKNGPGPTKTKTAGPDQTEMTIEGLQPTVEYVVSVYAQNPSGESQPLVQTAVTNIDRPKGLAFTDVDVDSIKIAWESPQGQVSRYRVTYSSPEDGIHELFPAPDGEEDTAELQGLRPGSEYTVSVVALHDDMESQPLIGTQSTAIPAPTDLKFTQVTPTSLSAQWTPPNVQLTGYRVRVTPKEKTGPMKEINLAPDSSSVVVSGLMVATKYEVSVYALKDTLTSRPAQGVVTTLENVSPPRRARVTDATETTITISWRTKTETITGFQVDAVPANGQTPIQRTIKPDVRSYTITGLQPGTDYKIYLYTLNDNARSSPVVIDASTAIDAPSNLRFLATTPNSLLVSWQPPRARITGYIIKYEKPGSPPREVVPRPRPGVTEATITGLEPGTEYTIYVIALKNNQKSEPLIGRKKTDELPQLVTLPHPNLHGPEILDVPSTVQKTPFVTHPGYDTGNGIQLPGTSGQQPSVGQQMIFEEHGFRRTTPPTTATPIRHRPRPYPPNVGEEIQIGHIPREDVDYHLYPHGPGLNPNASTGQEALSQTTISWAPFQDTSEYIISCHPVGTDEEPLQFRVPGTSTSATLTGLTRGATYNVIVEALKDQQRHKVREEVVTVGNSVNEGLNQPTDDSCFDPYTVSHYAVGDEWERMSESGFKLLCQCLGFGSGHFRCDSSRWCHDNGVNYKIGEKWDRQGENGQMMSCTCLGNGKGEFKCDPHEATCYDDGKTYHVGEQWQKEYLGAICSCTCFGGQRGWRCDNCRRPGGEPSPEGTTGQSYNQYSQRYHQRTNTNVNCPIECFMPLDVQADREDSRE

As usually defined, the Kd is the constant that tells how readily two partners part at equilibrium. With `CO[C@H]1[C@H](O)[C@@H](NS(=O)(=O)O)[C@@H](O[C@H]2[C@H](O)[C@@H](O)[C@H](OC[C@@H](O)[C@@H](O)[C@H](O)[C@@H](O)CNc3cccc(NC(=O)CCCCC4CCSS4)c3)O[C@@H]2C(=O)O)O[C@@H]1CO` (stereo partly drawn), the Kd in assay [1] came out at 4300 nM; on Fibronectin, 33 nM.
`CO[C@H]1[C@H](O)[C@@H](NS(=O)(=O)O)[C@@H](O[C@H]2[C@H](O)[C@@H](O)[C@H](OC[C@@H](O)[C@@H](O)[C@H](O)[C@@H](O)CNc3cccc(NC(=O)CCCCC4CCSS4)c3)O[C@@H]2C(=O)O)O[C@@H]1COS(=O)(=O)O` (stereo partly drawn): the Kd in assay [1] is 1400 nM; at Fibronectin, 6.5 nM.
Turning to `CO[C@H]1[C@H](O)[C@@H](NS(=O)(=O)O)[C@@H](O[C@H]2[C@H](O)[C@@H](OS(=O)(=O)O)[C@H](OC[C@@H](O)[C@@H](O)[C@H](O)[C@@H](O)CNc3cccc(NC(=O)CCCCC4CCSS4)c3)O[C@H]2C(=O)O)O[C@@H]1CO` (stereo partly drawn), the Kd in assay [1] came to 900 nM; on Fibronectin, 30 nM.
With `CO[C@H]1[C@H](O)[C@@H](NS(=O)(=O)O)[C@@H](O[C@H]2[C@H](O)[C@@H](OS(=O)(=O)O)[C@H](OC[C@@H](O)[C@@H](O)[C@H](O)[C@@H](O)CNc3cccc(NC(=O)CCCCC4CCSS4)c3)O[C@H]2C(=O)O)O[C@@H]1COS(=O)(=O)O` (stereo partly drawn), the Kd came to 1000 nM in assay [1] and 5.5 nM on Fibronectin.

The values are drawn from ChEMBL document CHEMBL1143919, “Sugar Chips immobilized with synthetic sulfated disaccharides of heparin/heparan sulfate partial structure” (Bioorg Med Chem Lett, 2008).
